Assay results from US4340725A (priority 1979, dated 1982).
Converted amounts (≈) assume the structure as drawn.

How the values were obtained:
Sarcoma 180 solid tumor = assay: Effect on sarcoma 180 solid tumor; assay type: in vivo, ddY-strain mice; conditions: 7 days after implantation
Method: Six male ddY-strain mice having a weight of about 20 g are used for each group as test animals; and 5×10^6 cells of Sarcoma 180 ascites tumor are implanted subcutaneously in the animals. After 24 hours following implantation, 0.2 ml phosphate buffered saline (PBS) containing DC-38-V in various concentrations is administered intraperitoneally.
Then the suspension is diluted with PBS to obtain suspensions having various concentrations of test compound.
As a control, PBS solution containing Tween 80 is used. The test animals are not affected by the control solution. PBS comprises 0.8 g/dl NaCl, 0.02 g/dl KCl, […] Na2 HPO4, and 0.02 g/dl KH2 PO4 (pH 7.2).
(§1) For comparison, 0.2 ml PBS solution containing mitomycin C is administered to a group of animals intraperitoneally at the same time as the test compound.
Seven days after implantation, the average tumor volume (mm^3) and T/C (T: average tumor volume of the group treated with the test compound, C: that of control) are determined.

[1] = test system: Lymphocytic leukemia P-388 tumor; assay: Effect on Lymphocytic leukemia P-388 tumor; assay type: in vivo, CDF1 mice
Method: Five male CDF1 mice having a weight of about 22 g are used for each group as test animals; and 1×10^6 cells of Lymphocytic leukemia P-388 tumor are implanted intraperitoneally in the test animals. Twenty-four hours following implantation, 0.2 ml PBS solution containing DC-38-V in various concentrations is administered intraperitoneally.
For comparison, 0.2 ml PBS solution containing mitomycin C is administered to a group of test animals intraperitoneally at the same time as the test compound.

MH 134 ascites tumor = assay: Effect on MH 134 ascites tumor; assay type: in vivo, C3H-strain mice; conditions: for Long term survivors (LTS): ≥40 days
Method: (§2) Six male C3H-strain mice having a weight of about 20 g are used for each group as test animals; and 5×10^6 cells of MH 134 ascites tumor are implanted in the animals intraperitoneally. After 24 hours following implantation, 0.2 ml PBS suspension containing DC-38-V in various concentrations is administered intraperitoneally.
as §1

[2] = test system: Ehrlich ascites carcinoma; assay: Effect on Ehrlich ascites carcinoma; assay type: in vivo, ddY-strain mice; conditions: for LTS: ≥60 days
Method: as §2, with “Five” for “Six”, “ddY-strain” for “C3H-strain”, “Ehrlich” for “MH 134”, “carcinoma” for “tumor”, “following implantation or once a day for five days from 24 hours after” for “following”
For comparison, mitomycin C is used as test compound.

Solubility of DC-38-V = assay type: physicochemical
[3] = Stability (solid; acidic, neutral, alkaline liquid; sun light or shielding); assay type: physicochemical
From the text: The stability of compound is illustrated in Table 1.

[4] = test system: Bacillus subtilis No. 10707; assay: in vitro antibacterial spectra, agar dilution method (pH 7.0); assay type: cell-based; conditions: read-out: Minimum Inhibitory Concentration (MIC)
From the text: (§3) The in vitro antibacterial spectra of DC-38-V determined by the agar dilution method (pH 7.0) is illustrated in the following Table 7.

Escherichia coli ATCC 26 = assay: as above; assay type: cell-based; conditions: ATCC26, read-out: Minimum Inhibitory Concentration (MIC)
From the text: as §3

[5] = test system: Klebsiella pneumoniae ATCC 10031; assay: as above; assay type: cell-based; conditions: ATCC10031, read-out: Minimum Inhibitory Concentration (MIC)
From the text: as §3

[6] = test system: Salmonella typhosa ATCC 9992; assay: as above; assay type: cell-based; conditions: Salmonella enterica, read-out: Minimum Inhibitory Concentration (MIC)
From the text: as §3

[7] = test system: Shigella sonnei ATCC 9290; assay: as above; assay type: cell-based; conditions: ATCC9290, read-out: Minimum Inhibitory Concentration (MIC)
From the text: as §3

[8] = test system: Staphylococcus aureus ATCC 6538 P; assay: as above; assay type: cell-based; conditions: ATCC6538, read-out: Minimum Inhibitory Concentration (MIC)
From the text: as §3

acute toxicity = conditions: mouse, in vivo, ip; mice, intraperitoneally
Method: The acute toxicity (LD50) of DC-38-V is >1000 mg/kg when the test compound is administered intraperitoneally to mice.

[9] = 25 × 5 mg/kg i.p., once a day for five days
[10] = 50 × 5 mg/kg i.p., once a day for five days
[11] = 100 × 5 mg/kg i.p., once a day for five days

What does the source list for `CO[C@@]12[C@H](COC(N)=O)C3=C(C(=O)C(C)=C(N)C3=O)N1C[C@@H]1N[C@@H]12` [Mitomycin C, mitomycin C, reference compound]?
T/C (average tumor volume) (Sarcoma 180 solid tumor; 4.2 mg/kg i.p.): 0.37; average tumor volume (V) (Sarcoma 180 solid tumor; 4.2 mg/kg i.p.): 529 mm^3; increased life span (ILS) ([1]; 4.2 mg/kg i.p.): 160%; mean survival time (MST) ([1]; 4.2 mg/kg i.p.): 16.5 days; ILS (MH 134 ascites tumor; 1.05 mg/kg i.p.): 106%; MST (MH 134 ascites tumor; 1.05 mg/kg i.p.): 18.1 days; Long term survivors (LTS) (MH 134 ascites tumor; 1.05 mg/kg i.p.): 0/6; ILS (MH 134 ascites tumor; 2.1 mg/kg i.p.): 116%; MST (MH 134 ascites tumor; 2.1 mg/kg i.p.): 19.8 days; Long term survivors (LTS) (MH 134 ascites tumor; 2.1 mg/kg i.p.): 0/6; ILS (MH 134 ascites tumor; 4.2 mg/kg i.p.): 120%; MST (MH 134 ascites tumor; 4.2 mg/kg i.p.): 20.5 days; Long term survivors (LTS) (MH 134 ascites tumor; 4.2 mg/kg i.p.): 0/6; ILS (MH 134 ascites tumor; 8.4 mg/kg i.p.): 55%; MST (MH 134 ascites tumor; 8.4 mg/kg i.p.): 9.4 days; Long term survivors (LTS) (MH 134 ascites tumor; 8.4 mg/kg i.p.): 0/6; ILS ([2]; 2.1 × 1 mg/kg): 122%; MST ([2]; 2.1 × 1 mg/kg): 18.6 days; LTS ([2]; 2.1 × 1 mg/kg): 0/5; ILS ([2]; 4.2 × 1 mg/kg): > 203%; MST ([2]; 4.2 × 1 mg/kg): > 30.8 days; LTS ([2]; 4.2 × 1 mg/kg): 1/5; ILS ([2]; 5.6 × 1 mg/kg): 122%; MST ([2]; 5.6 × 1 mg/kg): 18.6 days; LTS ([2]; 5.6 × 1 mg/kg): 0/5

For `C=Cc1cc(OC)c2c(c1)c(=O)oc1c2cc(OC)c2c(O)ccc(C3OC(C(C)O)C(O)C3O)c21` (stereo not shown) [DC-38-V], which Solubility (Solubility of DC-38-V; acetone) is on record?
The Solubility was “slightly soluble”.

And the Solubility (Solubility of DC-38-V; benzene)?
The Solubility was “slightly soluble”.

What about the Solubility (Solubility of DC-38-V; chloroform) of the same compound?
The Solubility was “slightly soluble”.

What about the Solubility (Solubility of DC-38-V; dimethylformamide) of the same compound?
The Solubility was “soluble”.

And the Solubility (Solubility of DC-38-V; dimethylsulfoxide)?
Its Solubility is “soluble”.

And the Solubility (Solubility of DC-38-V; ether)?
The Solubility was “almost insoluble”.

And the Solubility (Solubility of DC-38-V; ethyl acetate)?
The Solubility was “slightly soluble”.

And the Solubility (Solubility of DC-38-V; methanol)?
The Solubility was “slightly soluble”.

What about the Solubility (Solubility of DC-38-V; petroleum ether) of the same compound?
The Solubility was “almost insoluble”.

What about the Solubility (Solubility of DC-38-V; pyridine) of the same compound?
The Solubility was “soluble”.

What about the Solubility (Solubility of DC-38-V; tetrahydrofuran) of the same compound?
The Solubility was “soluble”.

And the Solubility (Solubility of DC-38-V; water)?
Its Solubility is “almost insoluble”.

And the Stability ([3]; Liquid acidic, shielding)?
The Stability was “stable”.

What about the Stability ([3]; Liquid alkaline, shielding) of the same compound?
Its Stability is “unstable”.

And the Stability ([3]; Liquid alkaline, sun light)?
The Stability was “unstable”.

What about the Stability ([3]; Liquid neutral, shielding) of the same compound?
Its Stability is “stable”.

And the Stability ([3]; Solid, shielding)?
Its Stability is “stable”.

And the Stability ([3]; Solid, sun light)?
Its Stability is “unstable”.

What about the MIC [4] of the same compound?
The MIC was 0.0375 µg/mL (≈ 0.0758 µM).

And the MIC (Escherichia coli ATCC 26)?
Its MIC is 18.8 µg/mL (≈ 37.9 µM).

What about the MIC [5] of the same compound?
Its MIC is > 75 µg/mL.

And the MIC [6]?
Its MIC is > 75 µg/mL.

What about the MIC [7] of the same compound?
The MIC was > 75 µg/mL.

What about the MIC [8] of the same compound?
The MIC was 0.0375 µg/mL (≈ 0.0758 µM).

What about the LD50 (acute toxicity) of the same compound?
Its LD50 is > 1000 mg/kg.

What about the “T/C (average tumor volume)” value (Sarcoma 180 solid tumor; 100 mg/kg i.p.) of the same compound?
Its value is 0.76.

What about the “average tumor volume (V)” value (Sarcoma 180 solid tumor; 100 mg/kg i.p.) of the same compound?
The value was 1,085 mm^3.

What about the “T/C (average tumor volume)” value (Sarcoma 180 solid tumor; 200 mg/kg i.p.) of the same compound?
The value was 0.62.

What about the “average tumor volume (V)” value (Sarcoma 180 solid tumor; 200 mg/kg i.p.) of the same compound?
The value was 874 mm^3.

And the “T/C (average tumor volume)” value (Sarcoma 180 solid tumor; 400 mg/kg i.p.)?
Its value is 0.40.

What about the “average tumor volume (V)” value (Sarcoma 180 solid tumor; 400 mg/kg i.p.) of the same compound?
Its value is 562 mm^3.

What about the “increased life span (ILS)” value ([1]; 50 mg/kg i.p.) of the same compound?
The value was 138%.

And the “mean survival time (MST)” value ([1]; 50 mg/kg i.p.)?
The value was 13.4 days.

And the “increased life span (ILS)” value ([1]; 100 mg/kg i.p.)?
Its value is 141%.

And the “mean survival time (MST)” value ([1]; 100 mg/kg i.p.)?
Its value is 14.5 days.

And the “increased life span (ILS)” value ([1]; 200 mg/kg i.p.)?
Its value is 155%.

And the “mean survival time (MST)” value ([1]; 200 mg/kg i.p.)?
Its value is 16.0 days.

What about the “increased life span (ILS)” value ([1]; 400 mg/kg i.p.) of the same compound?
Its value is 162%.

And the “mean survival time (MST)” value ([1]; 400 mg/kg i.p.)?
The value was 16.7 days.

What about the ILS (MH 134 ascites tumor; 100 mg/kg i.p.) of the same compound?
Its ILS is > 184%.

What about the MST (MH 134 ascites tumor; 100 mg/kg i.p.) of the same compound?
The MST was > 31.5 days.

And the “Long term survivors (LTS)” value (MH 134 ascites tumor; 100 mg/kg i.p.)?
Its value is 3/6.

What about the ILS (MH 134 ascites tumor; 200 mg/kg i.p.) of the same compound?
Its ILS is > 310%.

What about the MST (MH 134 ascites tumor; 200 mg/kg i.p.) of the same compound?
The MST was > 53.0 days.

And the “Long term survivors (LTS)” value (MH 134 ascites tumor; 200 mg/kg i.p.)?
Its value is 6/6.

What about the ILS (MH 134 ascites tumor; 400 mg/kg i.p.) of the same compound?
Its ILS is > 231%.

What about the MST (MH 134 ascites tumor; 400 mg/kg i.p.) of the same compound?
The MST was > 39.5 days.

And the “Long term survivors (LTS)” value (MH 134 ascites tumor; 400 mg/kg i.p.)?
The value was 2/6.

And the ILS [2, 9]?
The ILS was > 315%.

What about the MST [2, 9] of the same compound?
The MST was > 49.8 days.

What about the LTS [2, 9] of the same compound?
The LTS was 3/5.

What about the ILS ([2]; 50 × 1 mg/kg i.p.) of the same compound?
The ILS was 114%.

What about the MST ([2]; 50 × 1 mg/kg i.p.) of the same compound?
The MST was 17.4 days.

What about the LTS ([2]; 50 × 1 mg/kg i.p.) of the same compound?
The LTS was 0/5.

What about the ILS [2, 10] of the same compound?
Its ILS is > 358%.

And the MST [2, 10]?
Its MST is > 56.6 days.

What about the LTS [2, 10] of the same compound?
The LTS was 4/5.

What about the ILS ([2]; 100 × 1 mg/kg i.p.) of the same compound?
Its ILS is > 202%.

And the MST ([2]; 100 × 1 mg/kg i.p.)?
Its MST is > 30.6 days.

What about the LTS ([2]; 100 × 1 mg/kg i.p.) of the same compound?
The LTS was 1/5.

And the ILS [2, 11]?
Its ILS is > 380%.

What about the MST [2, 11] of the same compound?
Its MST is > 60 days.

What about the LTS [2, 11] of the same compound?
The LTS was 5/5.

What about the ILS ([2]; 200 × 1 mg/kg i.p.) of the same compound?
The ILS was > 264%.

And the MST ([2]; 200 × 1 mg/kg i.p.)?
The MST was > 40.2 days.

What about the LTS ([2]; 200 × 1 mg/kg i.p.) of the same compound?
The LTS was 2/5.

What about the ILS ([2]; 400 × 1 mg/kg i.p.) of the same compound?
The ILS was > 275%.

And the MST ([2]; 400 × 1 mg/kg i.p.)?
Its MST is > 41.8 days.

And the LTS ([2]; 400 × 1 mg/kg i.p.)?
The LTS was 2/5.
